Source: patent US9341616B2, “Sweet taste receptor chimeric proteins and use thereof” (AJINOMOTO CO., INC., priority 2014, dated 2016)
Residues, ends and D or L forms follow the SMILES beside them.

target: h-mT1R2-481/T1R3mosaicB (UniProt Q8TE23+Q925D8, A537S/A558R/A564V/A568V/A570T/A588V/A645S/A649T/A658V/A698V/A702T/A782V/A793V/A807V/A88D/C582S/C678S/E530V/E534N/E542M/E548N/E725V/F525Y/F541I/F612A/F622V/F665L/F695L/F71L/G696N/G701T/G86K/H484Y/H528R/H728R/I152V/I481V/I486P/I490V/I510L/I518V/I595M/I617V/I643V/I645L/I692L/I695G/I706V/I740A/I803L/K504M/K555R/K565R/K626T/K714N/K818R/K827G/L151M/L521P/L560F/L571I/L578I/L610P/L631F/L636F/L639V/L684P/L688V/L68N/L702I/L72W/L734M/L735F/L800F/L823M/L825Q/M492I/M616G/M644L/M682V/M690V/M744T/M748V/M74L/N540G/N541S/N547G/N675D/N721H/P545F/P561R/P564S/P638T/P67S/P824S/Q123R/Q536L/Q546K/Q550E/Q555R/Q611L/Q676H/Q757R/Q795R/Q831P/R498S/R632Q/R667S/S112P/S124D/S501P/S547N/S550A/S576L/S595F/S610P/S628F/S635P/S637R/S663R/S670G/S679G/S681F/S703N/S717H/S727G/S784D/S804G/T109A/T529S/T542A/T549I/T609V/T629S/T642S/T663I/T694M/T705I/T706G/T716I/T813A/V120A/V508I/V512P/V557A/V573A/V584A/V585L/V613L/V617M/V673M/V687A/V691A/V694A/V718L/V718M/V723A/V729T/V738A/V741L/V774I/V791M/V805L/V812A/V821L/W599R/W676R/W824R/Y533F/Y615F/Y671F/Y680C/Y769S/Y783H/Y794L); details: Table 6; genes h-mT481/T1R3mB (h-mT1R2-481, T1R3mB); HEK293E cells
Description: The HEK293E cells maintained by using the DMEM/Ham's F-12 medium (Nakarai Tesque) containing 10% fetal bovine serum ([…]) and 1% Pen Strep (GIBCO) were washed with D-PBS(−) (Nakarai Tesque), and collected from the flask by using 0.25% Trypsin EDTA (GIBCO). The cells were centrifuged (1,200 rpm, 3 minutes), and after the supernatant was removed, suspended in 5% FBS DMEM/Ham's F-12 at a density of 0.75×10^7 cell/ml. This suspension (10 ml) was put into a […] (IWAKI), and culture was performed overnight (37° C., 5% CO2). On the next day, the medium was exchanged with Opti-MEM (30 ml, Invitrogen, Life Technologies), a sweet taste receptor gene mixture (Gα15-trans48LD gene, various kinds of T1R2 chimeric genes, and various kinds of T1R3 chimeric genes, 63.8 μg in total) prepared by using Opti-MEM and Lipofectamin 2000 (Invitrogen, Life Technologies) was slowly added to the cell suspension, and incubation was performed (37° C., 5% CO2) for 6 hours to attain gene transfer.
After the gene transfer, the cells were washed with D-PBS(−), then removed from the flask by using 0.25% Trypsin EDTA (GIBCO), and collected. After the cell number was counted, the cells were suspended in the 5% FBS DMEM medium (2.78 mM glucose, GIBCO) at a density of 0.5×10^6 cell/ml. This cell suspension was put into wells of D-Lysine coat 96-well plate (BD bioscience) in such a volume that the cell count is 7.0×10^4 cells/well, and the cells were cultured overnight.
After the culture, all the medium of the 96 wells were discarded. 200 μl of the staining solution for measurement of intracellular calcium ion′ Calcium Assay Kit Express (Molecular Device), diluted 80 times with an assay buffer (20 mM HEPES, 146 mM NaCl, 1 mM MgSO4, 1.39 mM glucose, 1 mM CaC12, 2.5 mM Probenecid, 0.05% bovine serum albumin) was added to each well, and the plate was left standing at 37° C. for 30 minutes and at room temperature for 45 minutes to perform staining. After the staining, 50 μl of a solution of stimulant (sweet taste substance) prepared with the assay buffer was added to each well, and the fluorescence value was measured for 120 seconds after the stimulation by using FDSSμEELL (Hamamatsu Photonics). By measuring the fluorescence value (Ex. 480 nm, Em. 540 nm) before and after the stimulation, the change of the intracellular free calcium ion concentration caused by addition of the stimulant via a sweet taste receptor was quantitatively investigated. The measurement and analysis of the fluorescence value was performed by using the software attached to FDSSμEELL (FDSS7000EX), and ΔF/F value was calculated in accordance with the following equation, and used for the evaluation. ΔF/F=(Maximum fluorescence value after stimulation−Minimum fluorescence value after stimulation)/(Fluorescence value before stimulation)
Furthermore, by using the ΔF/F values obtained when each sweet taste substance was added, the S/N ratio was calculated. Specifically, the S/N value was calculated by using the minimum value of ΔF/F obtained when each substance was added at various concentrations as noise (N) value, and the similarly obtained maximum value of ΔF/F as the signal (S) value, and used as an index for sensitivity of the measurement of the activity of each receptor. That is, a higher S/N value means a higher sensitivity for detection of an interaction of a sweet taste receptor and a test substance, which makes it easier to detect stimulation with a sweet taste substance or sweet taste-regulating substance of a lower concentration.
The sweet taste substances used as the stimulating substance are acesulfame potassium (Tokyo Kasei Kogyo), sodium saccharin (WAKO), sucralose (SIGMA), sucrose (WAKO), and neotame (SIGMA), as well as aspartame, advantame, and SC-45647 ([3-[(S)-1-phenylethyl]-2-(4-cyanophenyl)guanidino]acetic acid, which were all synthesized in-house.

Chain of h-mT1R2-481/T1R3mosaicB (Q8TE23 with tags, fused parts or gaps with the stated changes limits assumed): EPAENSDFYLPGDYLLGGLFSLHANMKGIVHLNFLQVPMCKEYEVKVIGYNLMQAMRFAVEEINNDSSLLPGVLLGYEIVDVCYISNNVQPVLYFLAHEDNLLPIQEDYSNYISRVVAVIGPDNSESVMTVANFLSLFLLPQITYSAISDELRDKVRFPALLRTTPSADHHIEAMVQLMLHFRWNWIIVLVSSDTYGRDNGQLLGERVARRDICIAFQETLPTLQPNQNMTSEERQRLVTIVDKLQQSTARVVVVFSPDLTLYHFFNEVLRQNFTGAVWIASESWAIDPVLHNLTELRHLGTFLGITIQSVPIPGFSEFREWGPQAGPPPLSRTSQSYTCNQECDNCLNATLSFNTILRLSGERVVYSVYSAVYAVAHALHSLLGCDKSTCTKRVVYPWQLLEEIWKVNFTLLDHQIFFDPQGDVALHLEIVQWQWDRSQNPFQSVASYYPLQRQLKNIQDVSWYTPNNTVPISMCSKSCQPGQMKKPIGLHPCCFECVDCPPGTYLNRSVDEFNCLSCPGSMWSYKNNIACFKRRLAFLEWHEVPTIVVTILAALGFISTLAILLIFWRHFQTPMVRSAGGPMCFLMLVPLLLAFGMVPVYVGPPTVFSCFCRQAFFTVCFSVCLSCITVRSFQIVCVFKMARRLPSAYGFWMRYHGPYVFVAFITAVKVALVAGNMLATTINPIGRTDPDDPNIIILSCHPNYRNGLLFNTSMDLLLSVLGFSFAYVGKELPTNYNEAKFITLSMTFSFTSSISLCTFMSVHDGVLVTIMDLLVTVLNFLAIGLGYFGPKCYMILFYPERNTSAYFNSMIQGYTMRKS
Chain of h-mT1R2-481/T1R3mosaicB (Q925D8 with tags, fused parts or gaps with the stated changes limits assumed): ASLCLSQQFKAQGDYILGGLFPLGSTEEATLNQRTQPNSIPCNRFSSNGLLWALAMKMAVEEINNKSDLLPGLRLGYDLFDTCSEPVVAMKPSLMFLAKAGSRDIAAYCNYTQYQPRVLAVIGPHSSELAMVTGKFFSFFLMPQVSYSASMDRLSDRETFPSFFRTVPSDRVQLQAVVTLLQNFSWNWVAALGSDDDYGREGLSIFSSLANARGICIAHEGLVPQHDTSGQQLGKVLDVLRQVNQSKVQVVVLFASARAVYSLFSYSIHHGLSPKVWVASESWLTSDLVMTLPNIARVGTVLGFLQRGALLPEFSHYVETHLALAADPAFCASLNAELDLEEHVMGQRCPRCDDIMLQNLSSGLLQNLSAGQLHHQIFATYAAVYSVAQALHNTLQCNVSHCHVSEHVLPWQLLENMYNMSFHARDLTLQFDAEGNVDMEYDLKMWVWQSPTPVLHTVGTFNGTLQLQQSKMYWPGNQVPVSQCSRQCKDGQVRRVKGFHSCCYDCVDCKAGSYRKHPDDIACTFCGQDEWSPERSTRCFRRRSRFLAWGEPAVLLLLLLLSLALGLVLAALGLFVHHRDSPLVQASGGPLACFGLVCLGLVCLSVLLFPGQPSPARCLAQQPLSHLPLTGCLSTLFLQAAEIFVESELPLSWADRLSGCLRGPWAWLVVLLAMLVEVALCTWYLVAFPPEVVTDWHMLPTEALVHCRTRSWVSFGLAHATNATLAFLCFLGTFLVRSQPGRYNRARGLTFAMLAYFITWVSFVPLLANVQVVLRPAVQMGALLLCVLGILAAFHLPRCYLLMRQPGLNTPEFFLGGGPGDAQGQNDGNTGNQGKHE

Structure (SMILES) | S/N
COc1ccc(CCC(=O)c2c(O)cc(O[C@@H]3O[C@H](CO)[C@@H](O)[C@H](O)[C@H]3O[C@@H]3O[C@@H](C)[C@H](O)[C@@H](O)[C@H]3O)cc2O)cc1O [NHDC, neohesperidin dihydrochalcone] | 5.8
OC[C@H]1O[C@@](CO)(O[C@H]2O[C@H](CO)[C@@H](O)[C@H](O)[C@H]2O)[C@@H](O)[C@@H]1O [Sucrose, sucrose] | 4.0
O=C1NS(=O)(=O)c2ccccc21.[Na] [Saccharin Na, sodium saccharin] | 6.1
COC(=O)[C@H](Cc1ccccc1)NC(=O)[C@@H](N)CC(=O)O [Aspartame, aspartame] (HELM PEPTIDE1{D.F.[CO[*:1]]}$$$$V2.0) | 7.8
COC(=O)[C@H](Cc1ccccc1)NC(=O)[C@H](CC(=O)O)NCCCc1ccc(OC)c(O)c1 [Advantame, advantame] | 10.2
CC1=CC(=O)NS(=O)(=O)O1 [Acesulfame K, acesulfame potassium] | 5.6
COC(=O)[C@H](Cc1ccccc1)NC(=O)[C@H](CC(=O)O)NCCC(C)(C)C [Neotame, neotame] | 7.7
C[C@H](NC(=Nc1ccc(C#N)cc1)NCC(=O)O)c1ccccc1 [SC-45647, [3-[(S)-1-phenylethyl]-2-(4-cyanophenyl)guanidino]acetic acid] | 7.7
OC[C@H]1O[C@H](O[C@]2(CCl)O[C@H](CCl)[C@@H](O)[C@@H]2O)[C@H](O)[C@@H](O)[C@H]1Cl [Sucralose, sucralose] | 6.6
